Results published in PubChem BioAssay (NCI).
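Where inhibition never reached the appropriate level, the endpoint shown equals the highest concentration tested. Otherwise, values were interpolated linearly from a five-concentration, 48-hour dose response in 96-well plates. The concentration for full growth arrest is given as TGI.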

How the values were obtained:
Assay in all cases: DTP human tumour cell line panel, 48 h
[1] = tested on: RPMI-8226 leukemia
[2] = tested on: IGROV1 ovarian
[3] = tested on: PC-3 prostate
[4] = tested on: UO-31 renal
[5] = tested on: NCI-H226 lung
[6] = tested on: HCT-116 colon
[7] = tested on: MOLT-4 leukemia
[8] = tested on: ACHN renal
[9] = tested on: M14 melanoma
[10] = tested on: MDA-MB-231 breast
[11] = tested on: CCRF-CEM leukemia
[12] = tested on: CAKI-1 renal
[13] = tested on: SW-620 colon
[14] = tested on: SK-MEL-28 melanoma
[15] = tested on: SK-MEL-2 melanoma
[16] = tested on: HS 578T breast
[17] = tested on: SK-MEL-5 melanoma
[18] = tested on: MDA-MB-435
[19] = tested on: OVCAR-8 ovarian
[20] = tested on: SF-539 CNS
[21] = tested on: SNB-19 CNS
[22] = tested on: MALME-3M melanoma
[23] = tested on: BT-549 breast
[24] = tested on: MCF7 breast
[25] = tested on: OVCAR-4 ovarian
[26] = tested on: K-562 leukemia
[27] = tested on: TK-10 renal
[28] = tested on: OVCAR-5 ovarian
[29] = tested on: HL-60(TB) leukemia
[30] = tested on: A549 NSCLC
[31] = tested on: T-47D breast
[32] = tested on: 786-0 renal
[33] = tested on: SF-268 CNS
[34] = tested on: SK-OV-3 ovarian
[35] = tested on: MDA-N
[36] = tested on: HT29 colon
[37] = tested on: COLO 205 colon
[38] = tested on: EKVX NSCLC
[39] = tested on: SF-295 CNS
[40] = tested on: NCI/ADR-RES ovarian
[41] = tested on: SR leukemia
[42] = tested on: NCI-H460 lung
[43] = tested on: U251 CNS
[44] = tested on: HOP-62 NSCLC
[45] = tested on: NCI-H522 lung
[46] = tested on: UACC-257 melanoma
[47] = tested on: OVCAR-3 ovarian
[48] = tested on: LOX IMVI melanoma
[49] = tested on: DU-145 prostate
[50] = tested on: UACC-62 melanoma
[51] = tested on: HOP-92 NSCLC
[52] = tested on: SNB-75 CNS
[53] = tested on: HCC-2998 colon
[54] = tested on: HCT-15 colon
[55] = tested on: SN12C renal
[56] = tested on: KM12 colon
[57] = tested on: NCI-H23 lung
[58] = tested on: RXF 393 renal
[59] = tested on: A498 renal

## Cc1cc(=O)n2nc(CCl)sc2n1
[1]
  TGI: 50.6 µM
[2]
  TGI: 37 µM
[3]
  TGI: 29.8 µM
[4]
  TGI: 28.8 µM
[5]
  TGI: 34.9 µM
[6]
  TGI: 24.9 µM
[7]
  TGI: 36.3 µM
[8]
  TGI: 27.5 µM
[9]
  TGI: 23.4 µM
[10]
  TGI: 37.5 µM
[11]
  TGI: 40.8 µM
[12]
  TGI: 23.1 µM
[13]
  TGI: 37.5 µM
[14]
  TGI: 28.6 µM
[15]
  TGI: 28.7 µM
[16]
  TGI: 55.9 µM
[17]
  TGI: 23 µM
[18]
  TGI: 26.3 µM
[19]
  TGI: 35.5 µM
[20]
  TGI: 34.1 µM
[21]
  TGI: 39 µM
[22]
  TGI: 26.4 µM
[23]
  TGI: 17.5 µM
[24]
  TGI: 28.7 µM
[25]
  TGI: 32.4 µM
[26]
  TGI: 37.7 µM
[27]
  TGI: 23 µM
[28]
  TGI: 28.9 µM
[29]
  TGI: 38.2 µM
[30]
  TGI: 35 µM
[31]
  TGI: 32.3 µM
[32]
  TGI: 37 µM
[33]
  TGI: 39.5 µM
[34]
  TGI: 53.2 µM
[35]
  TGI: 27.7 µM
[36]
  TGI: 30.5 µM
[37]
  TGI: 33.5 µM
[38]
  TGI: 36 µM
[39]
  TGI: 42.9 µM
[40]
  TGI: 48 µM
[41]
  TGI: 87 µM
[42]
  TGI: 29.5 µM
[43]
  TGI: 20.3 µM
[44]
  TGI: 40.2 µM
[45]
  TGI: 20 µM
[46]
  TGI: 25.2 µM
[47]
  TGI: 28.4 µM
[48]
  TGI: 17.1 µM
[49]
  TGI: 40.6 µM
[50]
  TGI: 46.9 µM
[51]
  TGI: 28.2 µM
[52]
  TGI: 28.6 µM
[53]
  TGI: 31.1 µM
[54]
  TGI: 27.1 µM
[55]
  TGI: 35 µM
[56]
  TGI: 27.4 µM
[57]
  TGI: 47.1 µM
[58]
  TGI: 20.8 µM

## NC1=Nc2cc(Cl)ccc2Sc2nc3ccccc3n21
[1]
  TGI: > 100 µM
[2]
  TGI: > 100 µM
[3]
  TGI: > 100 µM
[4]
  TGI: > 100 µM
[5]
  TGI: > 100 µM
[7]
  TGI: > 100 µM
[8]
  TGI: > 100 µM
[9]
  TGI: > 100 µM
[10]
  TGI: > 100 µM
[11]
  TGI: 19.4 µM
[12]
  TGI: > 100 µM
[13]
  TGI: > 100 µM
[14]
  TGI: > 100 µM
[15]
  TGI: > 100 µM
[16]
  TGI: > 100 µM
[17]
  TGI: > 100 µM
[18]
  TGI: > 100 µM
[19]
  TGI: > 100 µM
[20]
  TGI: > 100 µM
[21]
  TGI: > 100 µM
[22]
  TGI: > 100 µM
[23]
  TGI: > 100 µM
[24]
  TGI: > 100 µM
[25]
  TGI: > 100 µM
[26]
  TGI: > 100 µM
[27]
  TGI: > 100 µM
[28]
  TGI: > 100 µM
[29]
  TGI: 7.49 µM
[30]
  TGI: > 100 µM
[31]
  TGI: > 100 µM
[32]
  TGI: > 100 µM
[33]
  TGI: > 100 µM
[34]
  TGI: > 100 µM
[35]
  TGI: > 100 µM
[36]
  TGI: > 100 µM
[37]
  TGI: > 100 µM
[38]
  TGI: > 100 µM
[39]
  TGI: > 100 µM
[40]
  TGI: > 100 µM
[42]
  TGI: > 100 µM
[43]
  TGI: > 100 µM
[44]
  TGI: > 100 µM
[45]
  TGI: > 100 µM
[59]
  TGI: > 100 µM
[46]
  TGI: > 100 µM
[47]
  TGI: > 100 µM
[48]
  TGI: > 100 µM
[49]
  TGI: > 100 µM
[50]
  TGI: > 100 µM
[51]
  TGI: 71 µM
[52]
  TGI: > 86.4 µM
[53]
  TGI: > 100 µM
[54]
  TGI: > 100 µM
[55]
  TGI: > 100 µM
[56]
  TGI: > 100 µM
[57]
  TGI: > 100 µM
[58]
  TGI: > 100 µM
